{"source": "paper PMC7523345", "about": "(Investigational new drugs, 2018)", "assay": "Phase I dose escalation study: safety, tolerability, DLT and MTD", "format": "in vivo"}
{"smiles": "Cc1cccc2c1NC(=O)[C@@H](NC(=O)[C@H](CCC(F)(F)F)[C@H](CCC(F)(F)F)C(N)=O)N=C2c1cccc(F)c1", "note": "[BMS-986115]", "values": [{"measurement": "Abdominal pain (drug related AE, all grades)", "setting": "Arm B BIW 2 mg (N = 2)", "result": "1 (50) n (%)"}, {"measurement": "Blood creatinine increased (drug related AE, all grades)", "setting": "Arm B BIW 2 mg (N = 2)", "result": "0 n (%)"}, {"measurement": "Colitis (drug related AE, Grade 3 and 4)", "setting": "Arm B BIW 2 mg (N = 2)", "result": "0 n (%)"}, {"measurement": "Cough (drug related AE, Grade 3 and 4)", "setting": "Arm B BIW 2 mg (N = 2)", "result": "0 n (%)"}, {"measurement": "Cough (drug related AE, all grades)", "setting": "Arm B BIW 2 mg (N = 2)", "result": "0 n (%)"}, {"measurement": "Decreased Appetite (drug related AE, Grade 3 and 4)", "setting": "Arm B BIW 2 mg (N = 2)", "result": "0 n (%)"}, {"measurement": "Decreased Appetite (drug related AE, all grades)", "setting": "Arm B BIW 2 mg (N = 2)", "result": "0 n (%)"}, {"measurement": "Dehydration (drug related AE, Grade 3 and 4)", "setting": "Arm B BIW 2 mg (N = 2)", "result": "0 n (%)"}, {"measurement": "Dehydration (drug related AE, all grades)", "setting": "Arm B BIW 2 mg (N = 2)", "result": "0 n (%)"}, {"measurement": "Dermatitis acneiform (drug related AE, all grades)", "setting": "Arm B BIW 2 mg (N = 2)", "result": "0 n (%)"}, {"measurement": "Diarrhoea (drug related AE, Grade 3 and 4)", "setting": "Arm B BIW 2 mg (N = 2)", "result": "1 (50) n (%)"}, {"measurement": "Diarrhoea (drug related AE, all grades)", "setting": "Arm B BIW 2 mg (N = 2)", "result": "1 (50) n (%)"}, {"measurement": "Dry mouth (drug related AE, all grades)", "setting": "Arm B BIW 2 mg (N = 2)", "result": "0 n (%)"}, {"measurement": "Dry skin (drug related AE, all grades)", "setting": "Arm B BIW 2 mg (N = 2)", "result": "0 n (%)"}, {"measurement": "Dysgeusia (drug related AE, all grades)", "setting": "Arm B BIW 2 mg (N = 2)", "result": "0 n (%)"}, {"measurement": "Dyspepsia (drug related AE, all grades)", "setting": "Arm B BIW 2 mg (N = 2)", "result": "1 (50) n (%)"}, {"measurement": "Dysphonia (drug related AE, all grades)", "setting": "Arm B BIW 2 mg (N = 2)", "result": "0 n (%)"}, {"measurement": "Fatigue (drug related AE, Grade 3 and 4)", "setting": "Arm B BIW 2 mg (N = 2)", "result": "0 n (%)"}, {"measurement": "Fatigue (drug related AE, all grades)", "setting": "Arm B BIW 2 mg (N = 2)", "result": "1 (50) n (%)"}, {"measurement": "Flatulence (drug related AE, all grades)", "setting": "Arm B BIW 2 mg (N = 2)", "result": "0 n (%)"}, {"measurement": "Hypocalcaemia (drug related AE, Grade 3 and 4)", "setting": "Arm B BIW 2 mg (N = 2)", "result": "0 n (%)"}, {"measurement": "Hypocalcaemia (drug related AE, all grades)", "setting": "Arm B BIW 2 mg (N = 2)", "result": "0 n (%)"}, {"measurement": "Hypokalaemia (drug related AE, Grade 3 and 4)", "setting": "Arm B BIW 2 mg (N = 2)", "result": "0 n (%)"}, {"measurement": "Hypokalaemia (drug related AE, all grades)", "setting": "Arm B BIW 2 mg (N = 2)", "result": "0 n (%)"}, {"measurement": "Hyponatraemia (drug related AE, Grade 3 and 4)", "setting": "Arm B BIW 2 mg (N = 2)", "result": "0 n (%)"}, {"measurement": "Hyponatraemia (drug related AE, all grades)", "setting": "Arm B BIW 2 mg (N = 2)", "result": "0 n (%)"}, {"measurement": "Hypophosphataemia (drug related AE, Grade 3 and 4)", "setting": "Arm B BIW 2 mg (N = 2)", "result": "1 (50) n (%)"}, {"measurement": "Hypophosphataemia (drug related AE, all grades)", "setting": "Arm B BIW 2 mg (N = 2)", "result": "1 (50) n (%)"}, {"measurement": "Ileus (drug related AE, Grade 3 and 4)", "setting": "Arm B BIW 2 mg (N = 2)", "result": "0 n (%)"}, {"measurement": "Increased upper airway secretion (drug related AE, all grades)", "setting": "Arm B BIW 2 mg (N = 2)", "result": "0 n (%)"}, {"measurement": "Laryngeal pain (drug related AE, all grades)", "setting": "Arm B BIW 2 mg (N = 2)", "result": "0 n (%)"}, {"measurement": "Leucocytosis (drug related AE, Grade 3 and 4)", "setting": "Arm B BIW 2 mg (N = 2)", "result": "0 n (%)"}, {"measurement": "Mouth ulceration (drug related AE, all grades)", "setting": "Arm B BIW 2 mg (N = 2)", "result": "0 n (%)"}, {"measurement": "Nausea (drug related AE, Grade 3 and 4)", "setting": "Arm B BIW 2 mg (N = 2)", "result": "0 n (%)"}, {"measurement": "Nausea (drug related AE, all grades)", "setting": "Arm B BIW 2 mg (N = 2)", "result": "1 (50) n (%)"}, {"measurement": "Pruritus (drug related AE, Grade 3 and 4)", "setting": "Arm B BIW 2 mg (N = 2)", "result": "0 n (%)"}, {"measurement": "Pruritus (drug related AE, all grades)", "setting": "Arm B BIW 2 mg (N = 2)", "result": "0 n (%)"}, {"measurement": "Pulmonary embolism (drug related AE, Grade 3 and 4)", "setting": "Arm B BIW 2 mg (N = 2)", "result": "0 n (%)"}, {"measurement": "Rash (drug related AE, all grades)", "setting": "Arm B BIW 2 mg (N = 2)", "result": "0 n (%)"}, {"measurement": "Rash maculopapular (drug related AE, all grades)", "setting": "Arm B BIW 2 mg (N = 2)", "result": "0 n (%)"}, {"measurement": "Sinusitis (drug related AE, all grades)", "setting": "Arm B BIW 2 mg (N = 2)", "result": "0 n (%)"}, {"measurement": "Urticaria (drug related AE, Grade 3 and 4)", "setting": "Arm B BIW 2 mg (N = 2)", "result": "0 n (%)"}, {"measurement": "Vision blurred (drug related AE, all grades)", "setting": "Arm B BIW 2 mg (N = 2)", "result": "0 n (%)"}, {"measurement": "Vomiting (drug related AE, Grade 3 and 4)", "setting": "Arm B BIW 2 mg (N = 2)", "result": "0 n (%)"}, {"measurement": "Vomiting (drug related AE, all grades)", "setting": "Arm B BIW 2 mg (N = 2)", "result": "0 n (%)"}, {"measurement": "Weight decreased (drug related AE, all grades)", "setting": "Arm B BIW 2 mg (N = 2)", "result": "0 n (%)"}, {"measurement": "No. of patients with DLTs", "setting": "Arm B BIW 2 mg, 2 DLT evaluable patients", "result": 0}, {"measurement": "Abdominal distension (drug related AE, all grades)", "setting": "Arm B BIW 4 mg (N = 2)", "result": "1 (50) n (%)"}, {"measurement": "Abdominal pain (drug related AE, Grade 3 and 4)", "setting": "Arm B BIW 4 mg (N = 2)", "result": "0 n (%)"}, {"measurement": "Abdominal pain (drug related AE, all grades)", "setting": "Arm B BIW 4 mg (N = 2)", "result": "0 n (%)"}, {"measurement": "Blood creatinine increased (drug related AE, all grades)", "setting": "Arm B BIW 4 mg (N = 2)", "result": "0 n (%)"}, {"measurement": "Colitis (drug related AE, Grade 3 and 4)", "setting": "Arm B BIW 4 mg (N = 2)", "result": "0 n (%)"}, {"measurement": "Cough (drug related AE, Grade 3 and 4)", "setting": "Arm B BIW 4 mg (N = 2)", "result": "0 n (%)"}, {"measurement": "Cough (drug related AE, all grades)", "setting": "Arm B BIW 4 mg (N = 2)", "result": "0 n (%)"}, {"measurement": "Decreased Appetite (drug related AE, Grade 3 and 4)", "setting": "Arm B BIW 4 mg (N = 2)", "result": "0 n (%)"}, {"measurement": "Decreased Appetite (drug related AE, all grades)", "setting": "Arm B BIW 4 mg (N = 2)", "result": "0 n (%)"}, {"measurement": "Dehydration (drug related AE, Grade 3 and 4)", "setting": "Arm B BIW 4 mg (N = 2)", "result": "0 n (%)"}, {"measurement": "Dehydration (drug related AE, all grades)", "setting": "Arm B BIW 4 mg (N = 2)", "result": "0 n (%)"}, {"measurement": "Dermatitis acneiform (drug related AE, all grades)", "setting": "Arm B BIW 4 mg (N = 2)", "result": "0 n (%)"}, {"measurement": "Diarrhoea (drug related AE, Grade 3 and 4)", "setting": "Arm B BIW 4 mg (N = 2)", "result": "0 n (%)"}, {"measurement": "Diarrhoea (drug related AE, all grades)", "setting": "Arm B BIW 4 mg (N = 2)", "result": "0 n (%)"}, {"measurement": "Dry mouth (drug related AE, all grades)", "setting": "Arm B BIW 4 mg (N = 2)", "result": "0 n (%)"}, {"measurement": "Dry skin (drug related AE, all grades)", "setting": "Arm B BIW 4 mg (N = 2)", "result": "0 n (%)"}, {"measurement": "Dysgeusia (drug related AE, all grades)", "setting": "Arm B BIW 4 mg (N = 2)", "result": "1 (50) n (%)"}, {"measurement": "Dyspepsia (drug related AE, all grades)", "setting": "Arm B BIW 4 mg (N = 2)", "result": "0 n (%)"}, {"measurement": "Dysphonia (drug related AE, all grades)", "setting": "Arm B BIW 4 mg (N = 2)", "result": "0 n (%)"}, {"measurement": "Fatigue (drug related AE, Grade 3 and 4)", "setting": "Arm B BIW 4 mg (N = 2)", "result": "0 n (%)"}, {"measurement": "Fatigue (drug related AE, all grades)", "setting": "Arm B BIW 4 mg (N = 2)", "result": "1 (50) n (%)"}, {"measurement": "Flatulence (drug related AE, all grades)", "setting": "Arm B BIW 4 mg (N = 2)", "result": "1 (50) n (%)"}, {"measurement": "Hypocalcaemia (drug related AE, Grade 3 and 4)", "setting": "Arm B BIW 4 mg (N = 2)", "result": "0 n (%)"}, {"measurement": "Hypocalcaemia (drug related AE, all grades)", "setting": "Arm B BIW 4 mg (N = 2)", "result": "0 n (%)"}]}
